This note sets out measurements from US6156762A, “Indolomorphinan derivative and agent for curing and preventing cerebral disorder” (Toray Industries, Inc., priority 1997, dated 2000).

pEC50: −log10 of the molar value.

Experiment [1] concerns cultured nerve cells. Put plainly: Action of protecting cultured nerve cells from glutamic acid toxicity (LDH leakage). As to conditions: rat fetal cerebral cortex cells, 10 mM glutamic acid, 24 hours, read-out: ED50 (the source's name). Type of experiment: cell-based, Wistar rat. An excerpt:
It is known that when the blood flow to the brain is temporarily clogged due to cerebral ischemia, hypoxia, or an trauma, delayed cerebral neuronal death is induced [Document: Brain Research, Vol. 239, 57 (1982)]. A possible cause of such damage of the cerebral nerve cells is excitatory toxicity due to an excitatory neutotransmitter such as glutamic acid or the like, which is excessively released with ischemia [Document: Trends in Neuroscience, vol. 10, 299 (1987)]. […] This is a problem to be solved by the invention. This action was evaluated by using the in vitro evaluation system which will be described below.
A fetus was taken from the abdomen of a Wistar female rat on the 18 to 19th day of pregnancy under aseptic conditions, and the head of the fetus was opened to extract the brain. The brain was placed in an ice-cooled L-15 medium, and the cerebral cortex was separated under a microscope. The cerebral cortexes of about 30 rats were cut into pieces, and then suspended in 10 ml of a 0.25% trypsin solution and 0.2 ml of a 0.01% DNase solution, followed by culture at 37° C. for 30 minutes. Then, 2 ml of serum was added to the solution, and immediately the resultant mixture was centrifuged at 120 rpm for 2 minutes to separate the precipitates. To the precipitates was added 7 ml of a DF medium (a medium obtained by adding 20 nM of transferrin, 5 μg/ml of insulin, 20 nM of progesterone,60 nM of selenite, 50 U/ml of penicillin, and 50 U/ml of streptomycin to a mixture equivalent amounts of Dulbecco modified Eagle medium and F-12 medium), followed by 20 pipetting operations using a 10-ml plastic pipette to obtain a cell suspension. The cell suspension was filtered with nylon mesh (pore diameter 43 μm) to fractionate isolated cells. The thus-obtained isolated cells were diluted with a DF medium to a concentration of 6.0×10^5 cells/ml, and 500 μl of the diluted cells was inoculated in each of the 48 wells of a 48-well culture plate precoated with polylysine, followed by culture at 37° C. for 1 day in the presence of 5% of CO2. On the 2nd day, the medium was changed to a new DF medium, and 10 μl of a solution of 0.5M glutamic acid in distilled water was added to each of the wells (the final glutamic acid concentration was 10 mM), followed by further culture at 37° C. for 24 hours in the presence 5% of CO2. A test compound was dissolved in distilled water, 10% or 100% DMSO or 10% methanol, and 5 μl of the solution was added to each of the wells immediately before glutamic acid was added. As an index of nerve cell damage, the enzyme activity of lactic acid dehydrogenase (LDH) leaking from the damaged cells into the medium was measured. For each of the test compounds, the LDH leakage was measured at each of concentrations to determine a dose-response curve by the modified Cochran-Armitige method. The 50% effective dose (ED50) of each of the test compounds we determined from the curve.
A general note: Release of lactate dehydrogenase indicates damage to the cell membrane.

Experiment [2] deals with middle cerebral artery ischemia model of rat. Put plainly: Infarction inhibiting action in middle cerebral artery ischemia (MCAo-recirculation) model of rat. Type of experiment: in vivo. As to conditions: ip, 24 h, 3 mg/kg i.p. 10 minutes before occlusion and 1 hour after recirculation, infarction volume one day after, vs control group, read-out: Rate of inhibition of infarction. An excerpt: It is also known that, in this way, in the acute stage of cerebral infarction, the lesion proceeds to the peripheral tissue from the core of infarction, and death of the nerve cells is extended with the passage of several days. This possible not only extends and creates grave aftereffects, and causes loss of motor and mental function, but also finally critically influences on the life. As an in vivo experimental model of cerebral infarction which is capable of precisely evaluating the clinical effect of a medicine in conformity with clinical conditions of the disease of a patient of cerebral infarction, the middle cerebral artery occlusion (MCAo)-recirculation model comprising an embolus with a yarn using Wister rates may be used [Document: Japan Journal of Stroke, vol. 8, 1 (1986)]. […] This action was evaluated by applying the MCAo model by the method which will be described below.
In rats of 10 weeks old, after etherization, a median incision of the cervical region was made up to the right carotid artery bifurcation under 1.0% halothane anesthetization with care to preserve the vagus nerves. The common carotid artery and the external carotid artery were separated from the periphery connective tissue with the right carotid artery bifurcation as the center, and each of the arteries was ligated by a 6-0 silk yarn (Eto yarn). Further, a yarn was wound on the internal carotid artery origin in preparation for ligation and fixing after insertion of the embolus. Next, the common carotid artery was incised, and the embolus was inserted from the common carotid artery to the internal carotid artery by about 15 to 16 mm, and ligated and fixed to the internal carotid artery by the silk yarn at the end thereof near the nylon yarn. In this operation, the end of the embolus was inserted into the anterior cerebral artery by about 1 to 2 mm beyond the middle cerebral artery bifurcation, and the inlet of the middle cerebral artery was occluded by the body (resin part) of the embolus for 1 hours. In recirculation, the embolus with a yarn was removed to recirculate the blood flow to the middle cerebral artery. 3 mg/kg of each of test compounds was intraperitoneally administered 10 minutes before occlusion and 1 hour after recirculation of the blood flow. One day after occlusion and recirculation, the whole body was perfused with physiologic saline through the heart, and the brain was extracted. The extracted brain was cooled with ice and water for 5 minutes, and cut at intervals of 2.0 mm to form 7 sections of the cerebral coronal surface. Each of the sections was stained with TTC (Triphenyltetrazolium Chloride), and fixed by a 5% neutral buffer formalin solution. In each of the sections, the infarction area in the right cerebral hemisphere was measured by an image analyzer (Olympus), and the infarction was evaluated by volume (mm^3). The infarction volume was compared with the infarction volume of a control group to calculate the rate of inhibition of infarction.

As to `Oc1ccc2c3c1O[C@H]1c4c(c5ccc6ccccc6c5n4CCCNC(=S)NCc4ccccc4)C[C@@]4(O)[C@@H](C2)N(CC2CC2)CC[C@]314` [Compound 67, 17-cyclopropylmethyl-3,14β-dihydroxy-6,7-dehydro-4,5α-epoxy-6,7,2',3'-[1'-[3-(N'-benzylthioureido)propyl]-6',7'-benzoindolo]morphinan], in experiment [1], the pEC50 is 7.57. For the same compound, the inhibition in vivo at 3 mg/kg in experiment [2] came out at 39%.
As for `Oc1ccc2c3c1O[C@H]1c4[nH]c5c(ccc6ccccc65)c4C[C@@]4(O)[C@@H](C2)N(CC2CC2)CC[C@]314` [Compound 2, 17-cyclopropylmethyl-3,14β-dihydroxy-6,7-dehydro-4,5α-epoxy-6,7,2',3'-(6',7'-benzoindolo)morphinan], the pEC50 in experiment [1] is 7.48. Moreover, in experiment [2], the inhibition in vivo at 3 mg/kg came to 72%.
For `O[C@@]12Cc3c([nH]c4c3ccc3ccccc34)[C@@H]3Oc4cccc5c4[C@@]31CCN(CC1CC1)[C@@H]2C5` [Compound 18, 17-cyclopropylmethyl-14β-hydroxy-6,7-dehydro-4,5α-epoxy-6,7,2',3'-(6',7'-benzoindolo)morphinan], the pEC50 in experiment [1] was 6.05. Further, the inhibition in vivo at 3 mg/kg in experiment [2] was 23%.
Consider `Oc1ccc2c3c1O[C@H]1c4[nH]c5c(cc6c7c(cccc75)CC6)c4C[C@@]4(O)[C@@H](C2)N(CC2CC2)CC[C@]314` [Compound 3, 17-cyclopropylmethyl-3,14β-dihydroxy-6,7-dehydro-4,5α-epoxy-6,7,2',3'-(5',6"-ethano-6',7'-benzoindolo)morphinan], for which the pEC50 in experiment [1] was 7.28. The inhibition in vivo at 3 mg/kg in experiment [2] was 54%.
For `CCCCCCCc1cccc2[nH]c3c(c12)C[C@@]1(O)[C@H]2Cc4ccc(O)c5c4[C@@]1(CCN2CC1CC1)[C@H]3O5` [Compound 6, 17-cyclopropylmethyl-3,14β-dihydroxy-6,7-dehydro-4,5α-epoxy-6,7,2',3'-(4'-heptylindolo)morphinan], the pEC50 in experiment [1] is 6.40. In experiment [2], the inhibition in vivo at 3 mg/kg stood at 33%.
Consider `OCCn1c2c(c3ccc4ccccc4c31)C[C@@]1(O)[C@H]3Cc4ccc(O)c5c4[C@@]1(CCN3CC1CC1)[C@H]2O5` [Compound 81, 17-cyclopropylmethyl-3,14β-dihydroxy-6,7-dehydro-4,5α-epoxy-6,7,2',3'-[1'-(2-hydroxyethyl)-6',7'-benzoindolo]morphinan], for which the pEC50 in experiment [1] was 7.17. Moreover, in experiment [2], the inhibition in vivo at 3 mg/kg was 11%.
For the compound `Cn1c2c(c3ccc4ccccc4c31)C[C@@]1(O)[C@H]3Cc4ccc(O)c5c4[C@@]1(CCN3CC1CC1)[C@H]2O5` [Compound 72, 17-cyclopropylmethyl-3,14β-dihydroxy-6,7-dehydro-4,5α-epoxy-6,7,2',3'-(1'-methyl-6',7'-benzoindolo)morphinan], the pEC50 in experiment [1] was 7.59. In experiment [2], the inhibition in vivo at 3 mg/kg is 85%.
On to `Cn1c2c(c3cc4c5c(cccc5c31)-c1ccccc1-4)C[C@@]1(O)[C@H]3Cc4ccc(O)c5c4[C@@]1(CCN3CC1CC1)[C@H]2O5` [Compound 77, 17-cyclopropylmethyl-3,14β-dihydroxy-6,7-dehydro-4,5α-epoxy-6,7,2',3'-(1'-methyl-5',6"-benzeno-6',7'-benzoindolo)morphinan], for which the pEC50 in experiment [1] was 6.80. Besides, in experiment [2], the inhibition in vivo at 3 mg/kg was determined as 84%.
`Oc1ccc2c3c1O[C@H]1c4[nH]c5c6c(ccc5c4C[C@@]4(O)[C@@H](C2)N(CC2CC2)CC[C@]314)-c1ccccc1C6` [Compound 20, 17-cyclopropylmethyl-3,14β-dihydroxy-6,7-dehydro-4,5α-epoxy-6,7,2',3'-(6',7',3",2"-indenoindolo)morphinan]: in experiment [1], the pEC50 is 7.57. Besides, the inhibition in vivo at 3 mg/kg in experiment [2] stood at 10%.
With `Oc1ccc2c3c1O[C@H]1c4[nH]c5c(cc(F)c6ccccc65)c4C[C@@]4(O)[C@@H](C2)N(CC2CC2)CC[C@]314` [Compound 14, 17-cyclopropylmethyl-3,14β-dihydroxy-6,7-dehydro-4,5α-epoxy-6,7,2',3'-(5'-fluoro-6',7'-benzoindolo)morphinan], the pEC50 in experiment [1] is 7.07. For the same compound, the inhibition in vivo at 3 mg/kg in experiment [2] was found to be 29%.
For `Oc1ccc2c3c1O[C@H]1c4[nH]c5c(ccc6cccc(Cl)c65)c4C[C@@]4(O)[C@@H](C2)N(CC2CC2)CC[C@]314` [Compound 12, 17-cyclopropylmethyl-3,14β-dihydroxy-6,7-dehydro-4,5α-epoxy-6,7,2',3'-(3"-chloro-6',7'-benzoindolo)morphinan], in that order: 7.46 and 67%.
For `Oc1ccc2c3c1O[C@H]1c4[nH]c5ccc6ccccc6c5c4C[C@@]4(O)[C@@H](C2)N(CC2CC2)CC[C@]314` [Compound 8, 17-cyclopropylmethyl-3,14β-dihydroxy-6,7-dehydro-4,5α-epoxy-6,7,2',3'-(4',5'-benzoindolo)morphinan], in that order: 6.70 and 49%.
For the compound `Oc1ccc2c3c1O[C@H]1c4[nH]c5c(cc(Br)c6ccccc65)c4C[C@@]4(O)[C@@H](C2)N(CC2CC2)CC[C@]314` [Compound 9, 17-cyclopropylmethyl-3,14β-dihydroxy-6,7-dehydro-4,5α-epoxy-6,7,2',3'-(5'-bromo-6',7'-benzoindolo)morphinan], the pEC50 in experiment [1] was 6.96. Also, the inhibition in vivo at 3 mg/kg in experiment [2] was determined as 9%.
